Reference: patent US4283329A, “Pharmacologically active peptides” (Eli Lilly and Company, priority 1979, dated 1981)
Where a SMILES comes first, the peptide text is derived from it. [ ]: non-standard residue; d: D form. Phe(4-F) = N[C@@H](Cc1ccc(F)cc1)C(=O)O; NMeM = CN[C@@H](CCSC)C(=O)O

System: not given
Test: not given
Details: administered parenterally; cited from earlier work

Row | Compound | analgesic activity
1 | H-Tyr-Gly-Gly-Phe-Leu-OH [leucine enkephalin] | practically devoid of any useful analgesic activity
2 | H-Tyr-Gly-Gly-Phe-Met-OH [methionine enkephalin] | practically devoid of any useful analgesic activity

System: mouse
Test: mouse hot plate test (analgesic activity)
Assay type: in vivo
Details: subcutaneous, hot plate 52° C., 15 minutes after administration, latency until jump
Method: In this test, a mouse is placed inside on upright acrylic cylinder comprising, as its base, a hot plate surface which is maintained at 52° C. The mouse is given, orally or by subcutaneous injection, a predetermined amount of test compound dissolved or suspended in a suitable carrier, and, 15 minutes after administration of the test compound, the mouse is placed on the hot plate surface. The latency in seconds until the mouse jumps from the hot plate surface is measured. […] This must occur in a dose range which produces no motor incoordination or incapacitation. The following Table records the ED50 results obtained from this test.

Row | Compound | Analgesic Activity, Hot Plate Test, ED50 [mg/kg]
3 | CSCC[C@@H](C(N)=O)N(C)C(=O)[C@H](Cc1ccc(F)cc1)NC(=O)CNC(=O)[C@@H](C)NC(=O)[C@@H](N)Cc1ccc(O)cc1 [Example 1, L-Tyrosyl-D-alanyl glycyl-L-p-fluorophenylalanyl-L-(N^α -methyl)methionin amide] | 0.023
4 | COc1ccc([C@H](NC(=O)[C@H](Cc2ccc(F)cc2)NC(=O)CNC(=O)[C@@H](C)NC(=O)[C@@H](N)Cc2ccc(O)cc2)C(N)=O)cc1 [Example 2, L-Tyrosyl-D-alanyl-glycyl-L-p-fluorophenylalanyl-L-p-methoxyphenylglycinamide] | 1.04
5 | C[C@@H](NC(=O)[C@@H](N)Cc1ccc(O)cc1)C(=O)NCC(=O)N[C@@H](Cc1ccc(F)cc1)C(=O)N[C@@H](C(N)=O)c1ccccc1 [Example 3 D-Pgl, L-Tyrosyl-D-alanyl-glycyl-L-p-fluorophenylalanyl-D-phenylglycinamide] | 0.103
6 | C[C@@H](NC(=O)[C@@H](N)Cc1ccc(O)cc1)C(=O)NCC(=O)N[C@@H](Cc1ccc(F)cc1)C(=O)N[C@H](C(N)=O)c1ccccc1 [Example 3 L-Pgl, L-Tyrosyl-D-alanyl-glycyl-L-p-fluorophenylalanyl-L-phenylglycinamide] | 0.063
7 | CSCC[C@@H](C(N)=O)N(C)C(=O)[C@H](Cc1ccc(F)cc1)NC(=O)CNC(=O)[C@H](NC(=O)[C@@H](N)Cc1ccc(O)cc1)[C@H](C)O [Example 4, L-Tyrosyl-D-threonylglycyl-L-p-fluorophenylalanyl-L-(N^α -methyl)methioninamide] (H-Y[dT]G[Phe(4-F)][NMeM]-NH2) | 0.088
